Patent EP4310070A1, “USE OF TRANS AMANTADINE DERIVATIVE OR SALT THEREOF” (Chengdu Shibeikang Biomedical Technology Co., Ltd., priority 2021, dated 2022)
Counter-ions that a name gives are not always drawn. Marks after values point to notes of the source that are not given here.

Experiments:
[1] = tested on: ammonia-induced coughing response in mice; test: cough response of mice induced by ammonia water; type: in vivo, KM mice
Procedure: 50 KM mice, weighing 18-22g, of both sexes were used and randomly divided into 5 groups, a model control group, a Formula I compound group (15 mg/kg, in terms of free base), a Formula V compound group (15 mg/kg, in terms of free base), a Comparative Example group (15 mg/kg, in terms of free base), and an ambroxol hydrochloride group (15 mg/kg, in terms of free base), 10 animals in each group, and were administered intravenously (dissolved in normal saline by adjusting pH or directly dissolved in normal saline). 30 minutes after the administration, the mice were put in an inverted beaker with a volume of 500ml and a cotton ball inside. Timing was started once 0.2ml of concentrated ammonia/mouse was added onto the cotton ball. The number of coughs of each animal within 3 minutes was observed and recorded. Here, the medicament used for the Comparative Example group was the 4-[(2-amino-3,5-dibromobenzyl)amino]adamantan-1-ol hydrochloride (racemic) prepared in Comparative Example 1. Table 3. Effect on ammonia-induced coughing response in mice (x ± s, n=10)

[2] = tested on: tracheal phenol red secretion in mice; test: phenol red expectoration test in mice; type: in vivo; settings: colorimetric measurement at 546nm; 30 mg/kg in terms of free base via tail vein 2 times in a row; x ± s, n=12; control 0.095±0.022; hydrochloride
Procedure: Experimental method: 60 mice of both sexes were used and randomly divided into a control (normal saline) group, a Formula I compound group (30 mg/kg, in terms of free base), a Formula V compound group (30 mg/kg, in terms of free base), a Comparative Example group (30 mg/kg, in terms of free base) and ambroxol hydrochloride (30 mg/kg, in terms of free base), 12 rats in each group; the respective medicaments were administered via the tail vein (dissolved in normal saline by adjusting pH or directly dissolved in normal saline) 2 times in a row. 15 minutes after the last administration to the mice, a 5% phenol red solution in normal saline (0.5g/kg) was subcutaneously injected. After 30 minutes, the mice were sacrificed and a section of the trachea was cut from below the thyroid cartilage to the trachea branch. The section was placed in a test tube containing 1 mL of normal saline, shaken and soaked for 30 minutes, and then centrifuged for 10 minutes (3000 r/min). The supernatant was transferred to another test tube, 0.1 mL of 1M NaOH solution was added, and shaken uniformly for a colorimetric measurement at 546nm. The effects of each group on the tracheal phenol red secretion in mice were statistically compared, and the experimental results obtained are shown in Table 5 below. Here, the medicament used for the Comparative Example group was the 4-[(2-amino-3,5-dibromobenzyl)amino]adamantan-1-ol hydrochloride (racemic) prepared in Comparative Example 1. Table 5. Effects on tracheal phenol red secretion in mice (x ± s)

[3] = tested on: acute lung injury in mice induced by oleic acid; test: acute lung injury test in mouse (oleic acid-induced, histological grading of lung pathology); type: in vivo, KM mice
Procedure: KM mice, weighing 18-22g, with all 66 being males, were used and randomly grouped into a normal control group, a model control group, a Formula I compound group (40 mg/kg, in terms of free base), a Formula V compound group (40 mg/kg, in terms of free base), a Comparative Example group (40 mg/kg, in terms of free base), and an ambroxol hydrochloride group (40 mg/kg, in terms of free base), 11 animals in each group, and each group was administered intravenously (dissolved in normal saline by adjusting pH or directly dissolved in normal saline) once a day for 4 times, while the model control group and the normal control group were given an equivalent amount of normal saline. 30 minutes after the last administration, except for the normal control group, all other mice were administered 300 mg/kg oleic acid intravenously (prepared into the desired concentration with sterile saline containing 0.1% […] immediately before use), and the vehicle control group was given an equivalent volume of 0.1% BSA saline. The mice were sacrificed 4 hours after the last administration, and the right lobes of the lungs were removed and fixed in a 10% formaldehyde solution. After dehydration, embedding in paraffin, dissection, and staining with HE, they were observed under a microscope for pathological changes of the lung tissues. Here, the medicament used for the Comparative Example group was the 4-[(2-amino-3,5-dibromobenzyl)amino]adamantan-1-ol hydrochloride (racemic) prepared in Comparative Example 1. Table 1. Criteria for histological grading of lung injury
The above indicators are multiplied by different weighting numbers depending on the significance of the pathology (alveolar wall thickening × 1, inflammatory cell infiltration × 1, lung tissue necrosis × 3), and finally added up to obtain an overall lung pathology score. Table 2. Test results of lung pathologies of each group

[4] = tested on: expectoration amount by rat capillary tube expectoration; test: rat capillary sputum excretion test; type: in vivo, SD rats; settings: length of liquid in capillary tube within 90 minutes; 15 mg/kg in terms of free base via tail vein, 30 minutes after administration; n=10; vehicle control 22.7±4.41; hydrochloride, 15 mg/kg
Procedure: 180-220g SD rats of both sexes were used and divided into random groups, with 10 rats in each group, namely a vehicle control group, a Formula I compound group (15 mg/kg, in terms of free base), a Formula V compound group (15 mg/kg, in terms of free base), a Comparative Example group (15 mg/kg, in terms of free base) and ambroxol hydrochloride (15 mg/kg, in terms of free base). The rats were fasted and restrained from water for 12 hours before testing the amount of sputum excretion, and administered the respective medicaments via the tail vein (dissolved in normal saline by adjusting pH or directly dissolved in normal saline). 30 minutes after the administration, they were anesthetized by intraperitoneally injecting 1g/kg of a urethane solution in saline, fixed in supine position, and the trachea was separated after cutting through neck skin. A small hole was pierced by using a syringe needle between the two cartilage rings on the lower edge of the thyroid cartilage, and a capillary tube (with an inner diameter of 0.8mm, and a length of 10cm) was inserted centripetally into the trachea. Sputum was collected while adjusting the angle between the capillary tube and the trachea, and the total number of the length of liquids in the capillary tube (mm) was used to evaluate the expectoration effect. The amount of expectoration of the rats within 90 minutes was recorded. Here, the medicament used for the Comparative Example group was the 4-[(2-amino-3,5-dibromobenzyl)amino]adamantan-1-ol hydrochloride (racemic) prepared in Comparative Example 1. Table 4. Results of the effect on the expectoration amount by rat capillary tube expectoration

[5] = number of mice (11 per group) at score 3 (Moderate), 40 mg/kg in terms of free base, intravenously once a day for 4 times, oleic acid 300 mg/kg i.v.
[6] = number of mice (11 per group) at score 4 (Severe), 40 mg/kg in terms of free base, intravenously once a day for 4 times, oleic acid 300 mg/kg i.v.

Nc1c(Br)cc(Br)cc1CN[C@@H]1[C@@H]2C[C@@H]3C[C@H]1C[C@@](O)(C3)C2 [Compound of Formula V, trans-4-[(2-amino-3,5-dibromobenzyl)amino]adamantan-1-ol hydrochloride]
reduction of the number of coughs ([1]; compared with the model control group (P<0.05 or P<0.01), 15 mg/kg free base i.v.): significantly reduce the number of coughs | Number of coughs (times) ([1]; within 3 minutes after concentrated ammonia, 15 mg/kg in terms of free base i.v., 30 minutes after administration, x ± s, n=10, model control 41.7±8.76, hydrochloride, 15 mg/kg): 19.5±6.50 times | Phenol red secretion (OD number) [2]: 0.278±0.054 OD number | Overall lung pathology score ([3]; group sum, weighted (alveolar wall thickening x 1, inflammatory cell infiltration x 1, lung tissue necrosis x 3), 40 mg/kg free base i.v. once a day for 4 times, model control 81, normal control 21, hydrochloride, 40 mg/kg): 24^**▲ | Alveolar wall thickening Level 0 ([3]; number of mice (11 per group) at score 0 (No pathological change), 40 mg/kg in terms of free base, intravenously once a day for 4 times, oleic acid 300 mg/kg i.v.): 1 | Inflammatory cell infiltration Level 0 ([3]; number of mice (11 per group) at score 0 (No pathological change), 40 mg/kg in terms of free base, intravenously once a day for 4 times, oleic acid 300 mg/kg i.v., hydrochloride): 2 | Lung tissue necrosis Level 1 ([3]; number of mice (11 per group) at score 1 (Occasional), 40 mg/kg in terms of free base, intravenously once a day for 4 times, oleic acid 300 mg/kg i.v.): 0 | Lung tissue necrosis Level 2 ([3]; number of mice (11 per group) at score 2 (Mild), 40 mg/kg in terms of free base, intravenously once a day for 4 times, oleic acid 300 mg/kg i.v.): 0 | Inflammatory cell infiltration Level 2 ([3]; number of mice (11 per group) at score 2 (Mild), 40 mg/kg in terms of free base, intravenously once a day for 4 times, oleic acid 300 mg/kg i.v., hydrochloride): 2 | Inflammatory cell infiltration Level 3 [3, 5]: 0 | Lung tissue necrosis Level 3 [3, 5]: 0 | Alveolar wall thickening Level 3 ([3]; number of mice (11 per group) at score 3 (Moderate), 40 mg/kg in terms of free base, intravenously once a day for 4 times, oleic acid 300 mg/kg i.v., hydrochloride): 0 | Alveolar wall thickening Level 4 [3, 6]: 0 | Inflammatory cell infiltration Level 4 [3, 6]: 0 | Lung tissue necrosis Level 4 [3, 6]: 0 | Expectoration amount in 90min (mm) [4]: 45.1±5.39 mm
